{"source": "ChEMBL document CHEMBL1201862", "about": "“PubChem BioAssay data set” (2004)", "key": {"[1]": {"test_system": "Streptococcus sp. 'group A'", "assay": "growth inhibition of control SK(-) GAS strain, dose response, counter-screen for streptokinase expression inhibitor project, luminescence, kanamycin, BacTiterGlo, confirmation (AID 1900)", "type": "functional, organism-based"}, "HeLa": {"test_system": "HeLa", "assay": "HeLa cell cytotoxicity, dose response, cytotoxicity control for MITF activator project, CellTiter-Glo luminescence, cherry-pick samples (AID 540259)", "type": "functional, cell-based", "settings": "Homo sapiens"}, "[2]": {"target": "T1, Nuclear receptor subfamily 0 group B member 1 (Homo sapiens, UniProt P51843)", "T1 sequence (P51843 whole entry)": "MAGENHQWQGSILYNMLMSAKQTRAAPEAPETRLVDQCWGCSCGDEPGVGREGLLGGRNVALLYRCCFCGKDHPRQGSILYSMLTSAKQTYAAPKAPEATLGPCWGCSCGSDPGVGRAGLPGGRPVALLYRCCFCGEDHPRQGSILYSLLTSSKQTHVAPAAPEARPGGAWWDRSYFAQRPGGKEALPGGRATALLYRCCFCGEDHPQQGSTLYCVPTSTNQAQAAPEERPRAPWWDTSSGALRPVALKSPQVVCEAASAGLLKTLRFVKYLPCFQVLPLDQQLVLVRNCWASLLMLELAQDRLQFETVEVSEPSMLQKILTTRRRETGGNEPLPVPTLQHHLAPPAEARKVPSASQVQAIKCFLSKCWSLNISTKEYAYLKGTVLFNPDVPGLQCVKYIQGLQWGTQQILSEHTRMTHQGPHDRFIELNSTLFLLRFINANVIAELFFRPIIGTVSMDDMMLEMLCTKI", "type": "functional, cell-based"}, "Streptokinase A": {"target": "T2, Streptokinase A (Streptococcus pyogenes serotype M1, UniProt P10520)", "T2 sequence (P10520 whole entry)": "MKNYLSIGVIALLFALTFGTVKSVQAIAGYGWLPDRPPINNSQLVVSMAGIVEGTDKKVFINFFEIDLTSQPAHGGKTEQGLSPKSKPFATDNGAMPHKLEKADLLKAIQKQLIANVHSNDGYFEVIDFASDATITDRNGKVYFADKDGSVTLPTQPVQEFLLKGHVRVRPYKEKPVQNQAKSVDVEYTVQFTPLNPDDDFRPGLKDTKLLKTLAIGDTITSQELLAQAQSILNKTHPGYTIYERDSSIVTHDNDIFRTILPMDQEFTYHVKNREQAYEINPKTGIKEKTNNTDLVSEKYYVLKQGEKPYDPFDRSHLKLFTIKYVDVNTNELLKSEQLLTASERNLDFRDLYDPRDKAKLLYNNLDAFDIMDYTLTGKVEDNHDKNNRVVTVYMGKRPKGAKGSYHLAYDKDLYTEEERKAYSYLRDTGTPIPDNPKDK", "assay": "S. pyogenes streptokinase expression inhibitors, potency, dose response, plasminogen activation absorbance, OD405 (AID 1914);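 note: secreted streptokinase activity via plasminogen activation per viability signal from cell pellet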", "type": "functional, Streptococcus pyogenes M1 GAS"}, "Streptococcus": {"test_system": "Streptococcus", "assay": "Group A Streptococcus viability loss, dose response, counter-screen for streptokinase expression inhibitor project, luminescence, BacTiterGlo (AID 1915);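 note: potency for reduction of bacterial viability or growth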", "type": "functional, organism-based"}, "cells": {"assay": "cells", "type": "functional, cell-based"}, "[3]": {"target": "T3, G-protein coupled receptor 55 (Homo sapiens, UniProt Q9Y2T6)", "T3 sequence (Q9Y2T6 whole entry)": "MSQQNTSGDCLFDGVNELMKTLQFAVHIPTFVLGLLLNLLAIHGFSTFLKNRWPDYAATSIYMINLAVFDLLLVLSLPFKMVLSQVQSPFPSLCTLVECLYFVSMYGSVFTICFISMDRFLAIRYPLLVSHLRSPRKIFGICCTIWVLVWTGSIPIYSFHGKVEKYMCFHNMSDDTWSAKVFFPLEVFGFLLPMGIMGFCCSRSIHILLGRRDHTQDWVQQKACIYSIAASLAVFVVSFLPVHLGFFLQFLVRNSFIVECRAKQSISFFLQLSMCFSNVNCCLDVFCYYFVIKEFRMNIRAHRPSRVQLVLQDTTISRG", "assay": "GPR55 antagonists blocking LPI-driven arrestin recruitment, primary screen, imaging, U2OS, beta-arrestin-GFP, LPI agonist (AID 2013);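 note: antagonist potency measured as reduced agonist-driven arrestin aggregation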", "type": "functional"}, "CAAX prenyl protease 2 [4]": {"target": "CAAX prenyl protease 2 (Saccharomyces cerevisiae S288c, UniProt Q03530)", "sequence (Q03530 whole entry)": "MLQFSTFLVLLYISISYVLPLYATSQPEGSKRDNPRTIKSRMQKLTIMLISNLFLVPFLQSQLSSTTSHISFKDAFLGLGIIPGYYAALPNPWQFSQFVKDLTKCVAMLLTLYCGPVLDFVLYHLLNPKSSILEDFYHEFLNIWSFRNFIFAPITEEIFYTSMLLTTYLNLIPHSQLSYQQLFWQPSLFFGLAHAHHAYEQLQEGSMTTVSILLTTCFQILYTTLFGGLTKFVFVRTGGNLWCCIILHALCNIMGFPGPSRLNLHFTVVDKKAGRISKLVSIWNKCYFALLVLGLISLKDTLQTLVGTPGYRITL", "type": "biochemical"}, "Cytochrome P450 2C9": {"target": "Cytochrome P450 2C9 (Homo sapiens, UniProt P11712)", "sequence (P11712 whole entry)": "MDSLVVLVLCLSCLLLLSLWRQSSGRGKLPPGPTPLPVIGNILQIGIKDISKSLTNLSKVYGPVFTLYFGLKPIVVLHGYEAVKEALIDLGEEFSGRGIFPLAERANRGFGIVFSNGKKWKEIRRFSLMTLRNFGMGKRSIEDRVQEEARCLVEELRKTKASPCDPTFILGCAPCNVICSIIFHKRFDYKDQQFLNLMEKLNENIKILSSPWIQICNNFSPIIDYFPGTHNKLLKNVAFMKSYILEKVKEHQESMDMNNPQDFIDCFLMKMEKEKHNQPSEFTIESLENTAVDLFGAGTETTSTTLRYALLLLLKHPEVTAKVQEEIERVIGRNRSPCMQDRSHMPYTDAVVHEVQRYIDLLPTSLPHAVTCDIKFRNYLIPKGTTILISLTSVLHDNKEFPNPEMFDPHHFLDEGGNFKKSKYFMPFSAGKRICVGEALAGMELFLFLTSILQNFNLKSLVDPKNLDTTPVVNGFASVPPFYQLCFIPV"}, "CAAX prenyl protease 2 [5]": {"target": "T4, CAAX prenyl protease 2 (Homo sapiens, UniProt Q9Y256)", "T4 sequence (Q9Y256 whole entry)": "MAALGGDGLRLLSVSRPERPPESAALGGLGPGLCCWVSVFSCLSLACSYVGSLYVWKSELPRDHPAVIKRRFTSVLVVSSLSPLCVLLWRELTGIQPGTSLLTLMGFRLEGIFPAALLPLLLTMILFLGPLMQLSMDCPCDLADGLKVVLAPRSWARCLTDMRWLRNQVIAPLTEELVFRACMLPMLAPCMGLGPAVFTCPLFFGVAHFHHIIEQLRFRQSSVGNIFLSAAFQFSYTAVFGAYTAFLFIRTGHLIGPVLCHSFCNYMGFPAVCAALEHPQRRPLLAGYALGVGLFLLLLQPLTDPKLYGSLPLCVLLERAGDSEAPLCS", "assay": "human Rce1 protease inhibitors, dose response, biochemical, yeast membranes, quenched-peptide fluorescence, cherry-pick (AID 588849)"}, "Trypsin": {"target": "Trypsin (Sus scrofa, UniProt P00761)", "sequence (P00761 whole entry)": "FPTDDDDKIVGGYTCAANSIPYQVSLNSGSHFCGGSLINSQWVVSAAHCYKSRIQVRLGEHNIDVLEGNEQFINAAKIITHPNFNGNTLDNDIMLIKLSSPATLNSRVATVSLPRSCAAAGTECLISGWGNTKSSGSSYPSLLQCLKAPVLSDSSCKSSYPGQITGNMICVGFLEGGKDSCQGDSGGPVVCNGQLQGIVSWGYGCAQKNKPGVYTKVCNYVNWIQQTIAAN", "assay": "porcine trypsin inhibitors, dose response, selectivity assay for Rce1 protease inhibitor project, biochemical, quenched peptide fluorescence, cherry-pick (AID 488789)"}, "Cytochrome P450 2C19": {"target": "Cytochrome P450 2C19 (Homo sapiens, UniProt P33261)", "sequence (P33261 whole entry)": "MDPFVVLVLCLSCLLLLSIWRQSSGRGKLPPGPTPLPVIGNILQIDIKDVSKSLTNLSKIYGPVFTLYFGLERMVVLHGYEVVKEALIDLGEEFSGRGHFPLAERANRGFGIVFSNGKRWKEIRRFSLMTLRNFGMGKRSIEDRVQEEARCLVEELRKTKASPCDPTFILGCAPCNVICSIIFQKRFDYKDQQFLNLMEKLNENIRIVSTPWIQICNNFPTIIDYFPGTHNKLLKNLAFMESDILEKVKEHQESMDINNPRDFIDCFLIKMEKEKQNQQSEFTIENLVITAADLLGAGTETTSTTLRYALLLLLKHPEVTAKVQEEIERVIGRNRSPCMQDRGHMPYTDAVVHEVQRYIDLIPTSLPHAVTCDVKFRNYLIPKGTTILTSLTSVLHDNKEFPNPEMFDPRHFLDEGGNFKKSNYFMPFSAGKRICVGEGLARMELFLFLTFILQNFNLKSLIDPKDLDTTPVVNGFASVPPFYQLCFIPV", "assay": "Cytochrome panel assay with activity outcomes. Panel member name: p450-cyp2c19 Compounds with AC50 equal or less than 10 uM are considered active", "type": "functional", "settings": "read-out: AC50"}, "Cytochrome P450 3A4": {"target": "Cytochrome P450 3A4 (Homo sapiens, UniProt P08684)", "sequence (P08684 whole entry)": "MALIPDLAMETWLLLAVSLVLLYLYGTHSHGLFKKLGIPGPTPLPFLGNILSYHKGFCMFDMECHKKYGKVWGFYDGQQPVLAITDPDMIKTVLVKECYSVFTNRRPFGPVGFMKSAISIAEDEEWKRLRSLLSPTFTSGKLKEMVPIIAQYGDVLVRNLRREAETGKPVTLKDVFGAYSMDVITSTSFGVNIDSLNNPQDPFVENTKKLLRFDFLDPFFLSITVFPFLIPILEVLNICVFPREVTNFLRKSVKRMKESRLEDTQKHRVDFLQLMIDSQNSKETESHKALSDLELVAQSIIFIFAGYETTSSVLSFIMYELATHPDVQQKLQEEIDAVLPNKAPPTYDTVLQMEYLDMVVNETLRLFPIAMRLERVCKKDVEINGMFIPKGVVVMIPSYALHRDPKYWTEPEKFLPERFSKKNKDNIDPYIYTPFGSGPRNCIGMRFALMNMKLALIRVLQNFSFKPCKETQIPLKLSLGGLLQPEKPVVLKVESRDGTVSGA"}, "Troponin, cardiac muscle": {"target": "Troponin, cardiac muscle (Homo sapiens, UniProt P19429+P45379+P63316)", "assay": "Fluorescence-based biochemical high throughput dose response assay for activators of the calcium sensitivity of cardiac Regulated Thin Filaments (RTF). [Related pubchem assays (depositor defined):AID493008, AID493018, AID504382, AID504383]", "type": "protein-complex assay"}, "[6]": {"target": "DNA dC->dU-editing enzyme APOBEC-3G (Homo sapiens, UniProt Q9HC16)", "sequence (Q9HC16 whole entry)": "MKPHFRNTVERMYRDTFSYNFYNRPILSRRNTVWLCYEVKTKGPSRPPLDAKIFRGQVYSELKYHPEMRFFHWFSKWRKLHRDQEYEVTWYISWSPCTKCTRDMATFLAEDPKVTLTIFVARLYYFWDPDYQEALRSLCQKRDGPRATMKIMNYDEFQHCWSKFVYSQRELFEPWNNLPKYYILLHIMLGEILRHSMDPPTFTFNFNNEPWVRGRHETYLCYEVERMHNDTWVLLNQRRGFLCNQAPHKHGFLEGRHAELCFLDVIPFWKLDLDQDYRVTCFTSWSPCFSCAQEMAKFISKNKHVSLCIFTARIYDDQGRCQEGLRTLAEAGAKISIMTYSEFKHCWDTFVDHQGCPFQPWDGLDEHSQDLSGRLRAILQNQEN", "type": "functional"}, "[7]": {"target": "DNA dC->dU-editing enzyme APOBEC-3A (Homo sapiens, UniProt P31941)", "sequence (P31941 whole entry)": "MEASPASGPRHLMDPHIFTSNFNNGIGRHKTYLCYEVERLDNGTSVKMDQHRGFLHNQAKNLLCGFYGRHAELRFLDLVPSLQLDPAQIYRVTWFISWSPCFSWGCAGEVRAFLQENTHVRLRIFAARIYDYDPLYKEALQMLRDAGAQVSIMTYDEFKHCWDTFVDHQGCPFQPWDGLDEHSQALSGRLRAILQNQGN", "assay": "Dose Response confirmation of small molecule APOBEC3A DNA Deaminase Inhibitors via a fluorescence-based single-stranded DNA deaminase assay. [Related pubchem assays (depositor defined):AID493011, AID493024]", "type": "functional"}, "X-box-binding protein 1": {"target": "T5, X-box-binding protein 1 (Homo sapiens, UniProt P17861)", "T5 sequence (P17861 whole entry)": "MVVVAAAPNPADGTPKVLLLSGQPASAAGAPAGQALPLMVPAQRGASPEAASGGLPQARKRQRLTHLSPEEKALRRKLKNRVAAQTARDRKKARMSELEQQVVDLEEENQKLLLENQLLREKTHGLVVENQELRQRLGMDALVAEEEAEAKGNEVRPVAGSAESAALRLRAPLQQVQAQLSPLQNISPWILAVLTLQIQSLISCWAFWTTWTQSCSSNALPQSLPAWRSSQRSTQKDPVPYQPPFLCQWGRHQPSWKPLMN", "type": "functional, Cricetulus griseus"}, "[8]": {"target": "DNA damage-inducible transcript 3 protein (Mus musculus, UniProt P35639)", "sequence (P35639 whole entry)": "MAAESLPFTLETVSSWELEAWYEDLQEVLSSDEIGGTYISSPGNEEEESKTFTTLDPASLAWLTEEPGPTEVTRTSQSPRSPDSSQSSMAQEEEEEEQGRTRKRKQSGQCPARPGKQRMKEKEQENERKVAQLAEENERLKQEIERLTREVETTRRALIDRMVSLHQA", "type": "functional, Cricetulus griseus"}, "[9]": {"target": "T3, G-protein coupled receptor 55", "assay": "SAR Analysis of Selective Antagonists of GPR55 using an Image-Based Assay - Set 3. [Related pubchem assays (depositor defined):AID2058, AID2079]", "type": "functional"}, "[10]": {"target": "G-protein coupled receptor 35 (Homo sapiens, UniProt Q9HC97)", "sequence (Q9HC97 whole entry)": "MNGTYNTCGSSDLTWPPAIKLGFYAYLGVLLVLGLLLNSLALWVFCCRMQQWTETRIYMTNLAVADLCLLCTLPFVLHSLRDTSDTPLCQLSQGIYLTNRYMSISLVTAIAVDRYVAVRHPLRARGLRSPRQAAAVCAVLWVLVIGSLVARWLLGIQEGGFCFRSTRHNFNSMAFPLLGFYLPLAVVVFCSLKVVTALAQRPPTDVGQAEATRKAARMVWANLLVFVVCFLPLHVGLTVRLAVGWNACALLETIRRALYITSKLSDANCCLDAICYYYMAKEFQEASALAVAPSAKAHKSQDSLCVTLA", "assay": "SAR analysis of Antagonists of the GPR35 Receptor using an Image-Based Assay - Set 5. [Related pubchem assays (depositor defined):AID2058, AID2079]", "type": "functional"}}, "note": "The source made the active and inactive calls.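 Throughout, for Absolute IC50 (XBP1): confirmatory dose-response counter-screen serving a CHOP assay.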", "data": [{"compound": "c1ccc(-c2nc(-c3nccc4ccccc34)oc2-c2ccccc2)cc1", "values": [{"measurement": "EC50", "setting": "[1]", "result": "> 150 µM (not active)"}, {"measurement": "AC50", "setting": "HeLa", "result": "132 µM (active)"}, {"measurement": "IC50", "setting": "[2]", "result": "> 67.5 µM (inactive)"}, {"measurement": "EC50", "setting": "Streptokinase A", "result": "5.23 µM (active)"}, {"measurement": "EC50", "setting": "Streptococcus", "result": "> 150 µM (not active)"}, {"measurement": "IC50", "setting": "cells", "result": "> 67.5 µM (inactive)"}, {"measurement": "IC50", "setting": "[3]", "result": "3.48 µM (active)"}]}, {"compound": "Cc1cccc(Nc2ccccc2C(=O)OCC(=O)N(C)C2CCS(=O)(=O)C2)c1C", "note": "(stereo not given)", "values": [{"measurement": "AC50", "setting": "CAAX prenyl protease 2 [4]", "result": "3.45 µM (active)"}, {"measurement": "AC50", "setting": "Cytochrome P450 2C9", "result": "39.8 µM (inconclusive)"}, {"measurement": "AC50", "setting": "CAAX prenyl protease 2 [5]", "result": "0.914 µM (active)"}, {"measurement": "AC50", "setting": "Trypsin", "result": "15.5 µM (active)"}, {"measurement": "AC50", "setting": "Cytochrome P450 2C19", "result": "28.2 µM (inconclusive)"}, {"measurement": "AC50", "setting": "Cytochrome P450 3A4", "result": "28.2 µM (inconclusive)"}]}, {"compound": "Cc1ccc(NC(=O)CN(C)c2ccc(S(=O)(=O)N3CCCC3)cn2)cc1", "values": [{"measurement": "EC50", "setting": "Troponin, cardiac muscle", "result": "> 71.5 µM (inactive)"}]}, {"compound": "COc1ccc(C(=O)NC(C)c2nnc(SCc3ccc(Cl)c(Cl)c3)n2C)cc1", "note": "(stereo not given)", "values": [{"measurement": "IC50", "setting": "[6]", "result": "5.45 µM (active)"}, {"measurement": "IC50", "setting": "[7]", "result": "3.87 µM (active)"}]}, {"compound": "Cn1nc(-c2ccccc2)cc1NC(=O)Nc1ccc(C(C)(C)C)cc1", "values": [{"measurement": "Absolute IC50 (XBP1)", "setting": "X-box-binding protein 1", "result": 10, "unit": "µM"}, {"measurement": "Absolute IC50 (CHOP)", "setting": "[8]", "result": 10, "unit": "µM"}]}, {"compound": "NC(=S)N/N=C/c1c[nH]nc1-c1ccccc1", "values": [{"measurement": "IC50", "setting": "[9]", "result": "> 32 µM (inactive)"}, {"measurement": "IC50", "setting": "[10]", "result": "> 32 µM (inactive)"}]}]}
